Results from US12599602B2, “Methods for treating cholestasis” (Mirum Pharmaceuticals, Inc., priority 2019, dated 2026).
Where a name gives a salt, the structure may show the parent alone.

Tested on: Overweight and obese adults
Experiment: Phase 1 blinded, placebo-controlled, dose-ranging clinical study (NCT02475317), fecal bile acid excretion
Procedure: Participants consumed a low-fiber diet (<10 mg/day) for 2 days before randomization and during the 7-day treatment period. Measurements were taken of fBA, sBA concentration, and serum 7αC4 concentration (which is a biomarker of bile acid synthesis) prior to drug administration and at day 7.

SMILES: CCCC[C@]1(CC)CS(=O)(=O)c2ccc(N(C)C)cc2[C@@H](c2cccc(NC(=O)N[C@@H]3O[C@H](COS(=O)(=O)O)[C@@H](O)[C@H](OCc4ccccc4)[C@H]3O)c2)[C@H]1O [volixibat, (2R,3R,4S,5R,6R)-4-benzyloxy-6-{3-[3-((3S,4R,5R)-3-butyl-7-dimethylamino-3-ethyl-4-hydroxy-1,1-dioxo-2,3,4,5-tetrahydro-1H-benzo[b]thiepin-5-yl)-phenyl]-ureido}-3,5-dihydroxy-tetrahydro-pyran-2-ylmethyl) hydrogen sulfate]
- Mean sBA levels (7 days): not elevated
- fBA excretion (across doses): increased in a dose-dependent manner
- treatment-emergent adverse events occurring in over 10% of participants (all doses): headache and diarrhea
- treatment-emergent adverse events, severity (all doses): mild, and none were serious
- Mean serum 7αC4 (baseline to day 7): increased
